The source of these data is US20230183219A1, “CONDENSED SUBSTITUTED HYDROPYRROLES AS ANTAGONISTS OF THE MUSCARINIC ACETYLCHOLINE RECEPTOR M4” (Vanderbilt University, priority 2020, published 2023).

The IC50 is the concentration at which inhibition is half-maximal.

For the assay, the target named is T1, Human M4 (Homo sapiens, UniProt P08173).
T1 construct: Human or rat M4 cDNA, along with the chimeric G protein Gqi5, were transfected into Chinese hamster ovary (CHO-K1) cells; expressed in transfected cells; host or cells: CHO-K1 (Chinese hamster ovary, ATCC), stably co-expressing Gqi5
T1 sequence (P08173 1-479): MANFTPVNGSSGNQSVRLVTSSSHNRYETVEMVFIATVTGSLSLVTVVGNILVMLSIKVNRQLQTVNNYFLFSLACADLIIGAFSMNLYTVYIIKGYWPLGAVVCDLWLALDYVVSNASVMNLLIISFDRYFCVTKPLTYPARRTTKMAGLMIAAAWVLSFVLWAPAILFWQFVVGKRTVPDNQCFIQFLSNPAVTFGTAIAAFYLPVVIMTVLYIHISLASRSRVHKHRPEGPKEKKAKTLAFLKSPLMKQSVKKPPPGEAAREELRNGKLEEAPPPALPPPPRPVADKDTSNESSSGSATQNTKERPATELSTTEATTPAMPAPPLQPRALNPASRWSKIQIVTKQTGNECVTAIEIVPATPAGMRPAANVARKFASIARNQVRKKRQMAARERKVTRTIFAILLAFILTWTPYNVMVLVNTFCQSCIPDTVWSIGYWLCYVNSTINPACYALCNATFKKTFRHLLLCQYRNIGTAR
Briefly: mAChR M4 cell-based functional assay (calcium flux, decrease of EC80 acetylcholine response). The following applies: for remaining activity at 30 µM: % ACh maximum at 30 μM, read-out: Human M4 Emin; for IC50: M4/Gqi5/CHO-K1 cells, decrease of response to EC80 acetylcholine. Summed up: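 CHO-K1 cells stably co-expressing M4 and chimeric Gqi5, loaded with Fluo-4 AM; calcium flux read on FDSS. Compound added at 2 s, EC20 acetylcholine at 143 s, EC80 acetylcholine at 268 s. IC50 from concentration-dependent decrease of the EC80 response, four-parameter logistic fit; 10-point 1:3 titrations.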

With `Fc1ccc(F)c(-c2cc(C(F)(F)F)c(N[C@H]3C[C@@H]4CN(Cc5ccccn5)C[C@@H]4C3)nn2)c1` [Example 48, (3aR,5s,6aS)-N-(6-(2,5-difluorophenyl)-4-(trifluoromethyl)pyridazin-3-yl)-2-(pyridin-2-ylmethyl)octahydro-cyclopenta[c]pyrrol-5-amine], the remaining activity at 30 µM turned out to be 3% and the IC50 was 615 nM.
The like results for `COc1ccc(F)cc1-c1cc(C(F)(F)F)c(N[C@H]2C[C@@H]3CN(CC4CCOCC4)C[C@@H]3C2)nn1` [Example 49, (3aR,5s,6aS)-N-(6-(5-fluoro-2-methoxyphenyl)-4-(trifluoromethyl)pyridazin-3-yl)-2-((tetrahydro-2H-pyran-4-yl)methyl)octahydro-cyclopenta[c]pyrrol-5-amine] were, in that order, 3% and 94.3 nM.
As to `[2H]C([2H])(C1CCOCC1)N1C[C@H]2C[C@H](Nc3nnc(-c4cc(F)ccc4F)cc3C(F)(F)F)C[C@H]2C1` [Example 50, (3aR,5s,6aS)-N-(6-(2,5-difluorophenyl)-4-(trifluoromethyl)pyridazin-3-yl)-2-((tetrahydro-2H-pyran-4-yl)methyl-d2)octahydro-cyclopenta[c]pyrrol-5-amine], the remaining activity at 30 µM was found to be 3% and the IC50 was determined as 144 nM.
The like results for `Cc1cc(-c2cc(C(F)(F)F)c(N[C@H]3C[C@@H]4CN(CC5CCOCC5)C[C@@H]4C3)nn2)c(C)cc1F` [Example 51, (3aR,5s,6aS)-N-(6-(4-fluoro-2,5-dimethylphenyl)-4-(trifluoromethyl)pyridazin-3-yl)-2-((tetrahydro-2H-pyran-4-yl)methyl)octahydro-cyclopenta[c]pyrrol-5-amine] were, in that order, 3% and 242 nM.
With `COc1cc(C)c(-c2cc(C(F)(F)F)c(N[C@H]3C[C@@H]4CN(CC5CCOCC5)C[C@@H]4C3)nn2)cc1C` [Example 52, (3aR,5s,6aS)-N-(6-(4-methoxy-2,5-dimethylphenyl)-4-(trifluoromethyl)pyridazin-3-yl)-2-((tetrahydro-2H-pyran-4-yl)methyl)octahydro-cyclopenta[c]pyrrol-5-amine], the remaining activity at 30 µM was determined as 3% and the IC50 was found to be 115 nM.
With `Cc1ccc(C(F)(F)F)cc1-c1cc(C(F)(F)F)c(N[C@H]2C[C@@H]3CN(CC4CCOCC4)C[C@@H]3C2)nn1` [Example 53, (3aR,5s,6aS)-N-(6-(2-methyl-5-(trifluoromethyl)phenyl)-4-(trifluoromethyl)pyridazin-3-yl)-2-((tetrahydro-2H-pyran-4-yl)methyl)octahydro-cyclopenta[c]pyrrol-5-amine], the remaining activity at 30 µM came out at 3% and the IC50 came to 315 nM.
Consider `N#Cc1ccc(F)c(-c2cc(C(F)(F)F)c(N[C@H]3C[C@@H]4CN(CC5CCOCC5)C[C@@H]4C3)nn2)c1` [Example 54, 4-fluoro-3-(6-(((3aR,5s,6aS)-2-((tetrahydro-2H-pyran-4-yl)methyl)octahydro-cyclopenta[c]pyrrol-5-yl)amino)-5-(trifluoro-methyl)pyridazin-3-yl)benzonitrile], for which the remaining activity at 30 µM is 4% and the IC50 turned out to be 223 nM.
The corresponding values for `N#Cc1c(F)ccc(-c2cc(C(F)(F)F)c(N[C@H]3C[C@@H]4CN(CC5CCOCC5)C[C@@H]4C3)nn2)c1F` [Example 55, 2,6-difluoro-3-(6-(((3aR,5s,6aS)-2-((tetrahydro-2H-pyran-4-yl)methyl)octahydro-cyclopenta[c]pyrrol-5-yl)amino)-5-(trifluoro-methyl)pyridazin-3-yl)benzonitrile] are 4% and 401 nM.
Turning to `CCOc1ccc(-c2cc(C(F)(F)F)c(N[C@H]3C[C@@H]4CN(CC5CCOCC5)C[C@@H]4C3)nn2)c(F)c1F` [Example 56, (3aR,5s,6aS)-N-(6-(4-ethoxy-2,3-difluorophenyl)-4-(trifluoro-methyl)pyridazin-3-yl)-2-((tetrahydro-2H-pyran-4-yl)methyl)octahydro-cyclopenta[c]pyrrol-5-amine], the remaining activity at 30 µM was 3% and the IC50 came to 234 nM.
For the molecule `COc1ccc(F)c(-c2cc(C(F)(F)F)c(N[C@H]3C[C@@H]4CN(CC5CCOCC5)C[C@@H]4C3)nn2)c1` [Example 57, (3aR,5s,6aS)-N-(6-(2-fluoro-5-methoxyphenyl)-4-(trifluoromethyl)pyridazin-3-yl)-2-((tetrahydro-2H-pyran-4-yl)methyl)octahydro-cyclopenta[c]pyrrol-5-amine], the remaining activity at 30 µM worked out at 3% and the IC50 stood at 278 nM.
`FC(F)(F)Oc1ccccc1-c1cc(C(F)(F)F)c(N[C@H]2C[C@@H]3CN(CC4CCOCC4)C[C@@H]3C2)nn1` [Example 58, (3aR,5s,6aS)-2-((tetrahydro-2H-pyran-4-yl)methyl)-N-(6-(2-(trifluoro-methoxy)phenyl)-4-(trifluoromethyl)pyridazin-3-yl)octahydro-cyclopenta[c]pyrrol-5-amine]: the remaining activity at 30 µM was found to be 3% and the IC50 came to 249 nM.
Consider `Cc1ccc(-c2cc(C(F)(F)F)c(N[C@H]3C[C@@H]4CN(CC5CCOCC5)C[C@@H]4C3)nn2)c(C)c1` [Example 59, (3aR,5s,6aS)-N-(6-(2,4-dimethylphenyl)-4-(trifluoromethyl)pyridazin-3-yl)-2-((tetrahydro-2H-pyran-4-yl)methyl)octahydro-cyclopenta[c]pyrrol-5-amine], for which the remaining activity at 30 µM was found to be 3% and the IC50 was 67.7 nM.
The like results for `N#Cc1cccc(-c2cc(C(F)(F)F)c(N[C@H]3C[C@@H]4CN(CC5CCOCC5)C[C@@H]4C3)nn2)c1F` [Example 60, 2-fluoro-3-(6-(((3aR,5s,6aS)-2-((tetrahydro-2H-pyran-4-yl)methyl)octahydro-cyclopenta[c]pyrrol-5-yl)amino)-5-(trifluoro-methyl)pyridazin-3-yl)benzonitrile] were, in that order, 4% and 232 nM.
In the case of `COc1ccc(-c2cc(C(F)(F)F)c(N[C@H]3C[C@@H]4CN(CC5CCOCC5)C[C@@H]4C3)nn2)c(F)c1` [Example 61, (3aR,5s,6aS)-N-(6-(2-fluoro-4-methoxyphenyl)-4-(trifluoromethyl)pyridazin-3-yl)-2-((tetrahydro-2H-pyran-4-yl)methyl)octahydro-cyclopenta[c]pyrrol-5-amine], the remaining activity at 30 µM was 3% and the IC50 stood at 233 nM.
The corresponding values for `COc1ccc(-c2cc(C(F)(F)F)c(N[C@H]3C[C@@H]4CN(CC5CCOCC5)C[C@@H]4C3)nn2)c(F)c1F` [Example 62, (3aR,5s,6aS)-N-(6-(2,3-difluoro-4-methoxyphenyl)-4-(trifluoromethyl)pyridazin-3-yl)-2-((tetrahydro-2H-pyran-4-yl)methyl)octahydro-cyclopenta[c]pyrrol-5-amine] are 3% and 258 nM.
As for `O=C1Cc2cc(-c3cc(C(F)(F)F)c(N[C@H]4C[C@@H]5CN(CC6CCOCC6)C[C@@H]5C4)nn3)ccc2N1` [Example 63, 5-(6-(((3aR,5s,6aS)-2-((tetrahydro-2H-pyran-4-yl)methyl)octahydro-cyclopenta[c]pyrrol-5-yl)amino)-5-(trifluoro-methyl)pyridazin-3-yl)indolin-2-one], the remaining activity at 30 µM was 3% and the half-inhibitory concentration (IC50) was 95.6 nM.
Regarding `COc1ccccc1-c1cc(C(F)(F)F)c(N[C@H]2C[C@@H]3CN(CC4CCOCC4)C[C@@H]3C2)nn1` [Example 64, (3aR,5s,6aS)-N-(6-(2-methoxyphenyl)-4-(trifluoromethyl)pyridazin-3-yl)-2-((tetrahydro-2H-pyran-4-yl)methyl)octahydro-cyclopenta[c]pyrrol-5-amine], the remaining activity at 30 µM amounted to 3% and the IC50 worked out at 54 nM.
Regarding `FC(F)(F)c1cc(-c2ccccc2)nnc1N[C@H]1C[C@@H]2CN(CC3CCOCC3)C[C@@H]2C1` [Example 65, (3aR,5s,6aS)-N-(6-phenyl-4-(trifluoromethyl)pyridazin-3-yl)-2-((tetrahydro-2H-pyran-4-yl)methyl)octahydro-cyclopenta[c]pyrrol-5-amine], the remaining activity at 30 µM came to 3% and the IC50 is 69 nM.
On to `Cn1cc(-c2cc(C(F)(F)F)c(N[C@H]3C[C@@H]4CN(CC5CCOCC5)C[C@@H]4C3)nn2)cn1` [Example 66, (3aR,5s,6aS)-N-(6-(1-methyl-1H-pyrazol-4-yl)-4-(trifluoro-methyl)pyridazin-3-yl)-2-((tetrahydro-2H-pyran-4-yl)methyl)octahydro-cyclopenta[c]pyrrol-5-amine], for which the remaining activity at 30 µM turned out to be 3% and the half-maximal inhibitory concentration (IC50) stood at 119 nM.
For the molecule `Cc1ccncc1-c1cc(C(F)(F)F)c(N[C@H]2C[C@@H]3CN(CC4CCOCC4)C[C@@H]3C2)nn1` [Example 67, (3aR,5s,6aS)-N-(6-(4-methylpyridin-3-yl)-4-(trifluoromethyl)pyridazin-3-yl)-2-((tetrahydro-2H-pyran-4-yl)methyl)octahydro-cyclopenta[c]pyrrol-5-amine], the remaining activity at 30 µM was determined as 3% and the IC50 was 133 nM.
